Results from patent publication US7767118B2, “Nanoparticles from supercritical fluid antisolvent process using particle growth and agglomeration retardants” (Ferro Corporation, priority 2003, dated 2010).

Assays:
[1] = Particle size distribution by laser light scattering; type: physicochemical; settings: FIG. 5, standard deviation 1.87 microns, particles precipitated in SC-CO2 at 40° C., 80 bar with alpha D glucose penta acetate
Method: The mean diameter of the acetaminophen particles formed in the Example was measured using the conventional laser light scattering technique, which is known in the art. FIG. 5 is a graph showing the size distribution of particles. The mean volume diameter of the particles was 4.08 microns and the standard deviation was 1.87 microns.

[2] = Scanning electron micrographs of the particles formed in the Example; type: physicochemical; settings: particles precipitated from acetone into SC-CO2 at 40° C., 80 bar with alpha D glucose penta acetate as growth retardant; FIGS. 4A and 4B; substantially uniform in size, circular in shape
Source text: FIGS. 4A and 4B are scanning electron micrographs of the acetaminophen particles formed in the Example at two magnifications. […] Some minimal particle agglomeration or bridging is apparent.

CC(=O)Nc1ccc(O)cc1 [acetaminophen]
mean volume diameter of the particles [1]: 4.08 microns | particle size (scanning electron micrographs) [2]: 1-2 microns
